# Where two headings read alike, the source gives them in different places.
# Tested on: NALM-6 human leukemia cells
# Assay: Mitochondrial membrane potential (DiIC1, JC-1 flow cytometry)
# Assay type: cell-based
# Conditions: for EC50: Homo sapiens, NALM-6
# Description: Mitochondrial membrane potential (Δψm) was measured using two dyes including a lipophillic cation 5,5′,6,6′-tetrachloro-1,1′,3,3′-tetraethlybenzimidazolylcarbocyanine iodide (JC-1) and a cyanine dye, 1,1′,3,3,3′,3′-hexamethylindodicarbocyanine iodide (DiIC1 (27-29)) obtained from Molecular Probes (Eugene, Oreg.). JC-1 is a monomer at 527 nm after being excited at 490 nm; with polarization of Δψm, J-aggregates are formed that shift emission to 590 nm (30). This can be detected on a flow cytometer by assessing the green signal (at 527 nm) and green-orange signal (at 590 nm) simultaneously, creating an index of the number of cells polarized and depolarized mitochondria. DiIC1, a cyanine dye which is amphioatheic and cationic, concentrates in energized mitochondria and has been used in a variety of studies to measure the mitochondrial membrane potential (Fujii, H., et al., Histochem J. 29: 571-581, 1997; Mancini, M., et al., J. Cell Biol. 138: 449-469, 1997; and Petit, P. X., et al., J. Cell Biol. 130: 157-167, 1995). Cells were also stained with DiIC1 at 40 nM concentration for 30 min in the dark as described for JC-1. The cells were analyzed using a Vantage Becton Dickinson (San Jose, Calif.) cell sorter equipped with HeNe laser with excitation at 635 nm and the fluorescence was collected at 666 nm.
# To test the cytotoxicity of compound 6 against JAK-3 expressing human leukemia cells, leukemic cells were exposed to this JAK3 inhibitor and monitored for apoptosis-associated changes in mitochondrial membrane potential (Δψm) and mitochondrial mass using specific fluorescent mitochondrial probes and multiparameter flow cytometry. To measure changes in Δψm, DiIC1 (which accumulates in energized mitochondria) was used, whereas the mitochondrial mass was determined by staining the cells with NAO, a fluorescent dye that binds to the mitochondrial inner membrane independent of energetic state. Treatment of NALM-6 leukemia cells with compound 6 at 7.4 μg/ml (25 μM) to 60 μg/ml (200 μM) for 24 h or 48 h increased the number of depolarized mitochondria in a concentration- and time-dependent manner as determined by flow cytometry using DiIC1 (27-29) (FIG. 7A). […] To further confirm this relative change in Δψm, we used JC-1, a mitochondrial dye, which normally exists in solution as a monomer emitting green fluorescence and assumes a dimeric configuration emitting red fluorescence in a reaction driven by mitochondrial transmembrane potential (Smiley, S. T., et al., Proc. Natl. Acad. Sci. U.S. A. 88: 3671-3675, 1991). Thus, the use of JC-1 allows simultaneous analysis of mitochondrial mass (green fluorescence) and mitochondrial transmembrane potential (red/orange fluorescence). After treatment of NALM-6 cells with compound 6 at increasing concentrations ranging from 25 μM to 200 μM and with increasing duration of exposure of 24 h or 48 h, we observed a progressive dissociation between Δψm and mitochondrial mass, with decrement in JC-1 red/orange fluorescence without a significant corresponding drop in JC-1 green fluorescence (FIG. 7C&D).
structure (smiles),measurement,setting,value
"COc1cc2ncnc(Nc3ccc(O)cc3)c2cc1OC [WHI-P131, 4-(4′-hydroxyl-phenyl)-amino-6,7-dimethoxyquinazoline]",JC-1 green fluorescence (mitochondrial mass),200 μM × 48 hours,99.8%
same,fraction of DiIC1-negative cells with depolarized mitochondria,"200 μM, 48 hours",81.6%
same,fraction of JC-1 red/orange fluorescence-negative cells,"200 μM, 48 hours",16.9%
same,EC50,"24 hour treatment, read-out: EC50, depolarization of mitochondria (decreased DiIC1 staining)",79.3 µM
same,EC50,"24 hour treatment, read-out: EC50, depolarization of mitochondria (decreased JC-1 red/orange fluorescence)",94.2 µM
same,EC50,"48 hour treatment, read-out: EC50, depolarization of mitochondria (decreased DiIC1 staining)",58.4 µM
same,EC50,"48 hour treatment, read-out: EC50, depolarization of mitochondria (decreased JC-1 red/orange fluorescence)",50.4 µM
